In US20180161288A1, “TAU AGGREGATION INHIBITOR” (National Center for Geriatrics and Gerontology, priority 2011, published 2018):

How the values were obtained:
tau [1] = molecular target: T1, tau (Homo sapiens, UniProt P10636); experiment: thioflavine T stain of heparin-induced tau aggregation; assay type: biochemical; details: 10 μM tau
tau [2] = molecular target: T1, tau; experiment: sucrose-density gradient centrifugation with SDS-PAGE western blotting of tau; assay type: biochemical; details: for amount of tau (granular and filamentous tau aggregates) fractionated into Fr3 and subsequent fractions: FIG. 11; for amount of tau in fractions Fr3, 4, 5, and 6: compound 100 μM, FIG. 2
tau [3] = molecular target: T1, tau; experiment: quantification of insoluble tau pellet after centrifugation at 250000 xg; assay type: biochemical; details: pellet after 250000 xg for 2 h
Method: For this analysis, 10-μM tau, a compound (1 μM, 10 μM, or 100 μM), and thioflavine T (a beta-pleated sheet structure-specific detection reagent) were mixed together. Thereafter, heparin, which is a tau aggregation inducer, was added to the mixture, and the resulting mixture was incubated at 37° C., thereby allowing tau to aggregate. Subsequently, the thioflavine T activity in an incubation sample was measured at various times to investigate tau aggregation inhibition effects by the compounds.
To further investigate the effects of these nine compounds on tau aggregation specifically, samples that had been incubated at 37° C. were centrifuged at 250000 ×g for 2 h, the resultant pellets were obtained so that the amount of insoluble tau were quantified.

P301L tau Tg mice = experiment: sarkosyl-insoluble tau in brains of P301L tau Tg mice; assay type: in vivo
tau [4] = molecular target: T1, tau; experiment: atomic force microscope observation of tau aggregation; assay type: biochemical; details: sample incubated for 120 hours; FIG. 12
Method: Thereafter, to analyze a change of tau aggregation by d-isoprenaline morphologically, the sample was investigated by using an atomic force microscope. A tau aggregation sample that had been incubated for 120 hours was loaded on a mica board and adsorbed thereon. […] FIG. 12A is a photograph of a control, FIG. 12B is a photograph showing effects of d-isoprenaline on a tau aggregation sample, and FIG. 12C is a graph of measured major axes of tau aggregation.

WT tau Tg mice = experiment: tau dephosphorylation (tau1 antibody) in TBS-soluble fractions from WT tau Tg mice; assay type: in vivo; details: TBS-soluble fraction; FIG. 9
From the text: A change in tau phosphorylation in TBS-soluble fractions from WT tau Tg mice was investigated.

human P301L mutant tau [5] = molecular target: T2, human P301L mutant tau (Homo sapiens, UniProt P10636, P618L); experiment: tau phosphorylation (AT8) in RIPA-soluble fractions of Neuro2a cells; assay type: cell-based; details: RIPA-soluble fraction, FIG. 4
T2 construct: expressed in transfected cells
T2 sequence (P10636 1-441 isoform P10636-8 P301L): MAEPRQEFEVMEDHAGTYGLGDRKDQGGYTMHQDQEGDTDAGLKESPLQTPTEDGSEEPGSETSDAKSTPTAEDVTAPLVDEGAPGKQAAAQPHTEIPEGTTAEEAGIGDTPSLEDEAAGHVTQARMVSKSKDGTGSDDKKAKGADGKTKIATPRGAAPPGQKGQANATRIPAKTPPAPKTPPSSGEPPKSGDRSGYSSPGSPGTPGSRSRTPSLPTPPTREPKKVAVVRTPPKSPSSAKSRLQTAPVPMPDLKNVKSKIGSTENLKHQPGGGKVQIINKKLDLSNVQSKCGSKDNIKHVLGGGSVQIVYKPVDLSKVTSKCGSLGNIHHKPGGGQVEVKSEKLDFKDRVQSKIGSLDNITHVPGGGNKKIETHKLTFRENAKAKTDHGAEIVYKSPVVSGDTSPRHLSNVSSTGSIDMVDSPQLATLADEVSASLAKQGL
Method: As cells, Neuro2a cell lines in which human P301L mutant tau (i.e., mutant tau in which 301st proline of tau is changed to leucine) is expressed in stable were used. […] Then, SDS-insoluble fractions were obtained so that a change in the amounts of tau was observed.
In addition, changes of tau phosphorylation in radio-immunoprecipitation assay (RIPA) buffer-soluble fractions obtained from similar cells were analyzed. […] The composition of the RIPA buffer was 50 mM Tris-HCl (pH7.4), 150 mM sodium chloride, 0.25 w/v % sodium deoxycholate, 1 mM EGTA, and 1.0 w/v % NP-40 substitute.

WT tau [6] = molecular target: T3, WT tau (Homo sapiens, UniProt P10636); experiment: MC1 dot blotting and AT8 phosphorylation in WT tau-expressing COS-7 cells; assay type: cell-based, African green monkey
T3 construct: expressed in transfected cells; host or cells: COS-7 (African green monkey kidney)
T3 sequence (P10636 1-441 isoform P10636-8): as the sequence (P10636 1-441 isoform P10636-8 P301L) above, with L301P counted along it
From the text: Tau phosphorylations at AT8 sites are known to induce a tau conformational change (that can be detected with the MC1 antibody) observed in AD brains. Thus, WT tau was expressed in COS-7 cells (derived from African green monkey kidney), and a tau conformational change was detected by dot blotting using the MC1 antibody. The dot blotting is a technique of fixing protein to a nitrocellulose membrane or a PVDF membrane without separation through electrophoresis and specifically quantitating the protein amount with enzyme-labeled antibodies.

human P301L mutant tau [7] = molecular target: T2, human P301L mutant tau; experiment: SDS-insoluble tau in Neuro2a cells expressing P301L mutant tau; assay type: cell-based; details: Neuro2a cells, 0.01, 0.1 and 1 μM isoprenaline for 48 hours; FIG. 3
WT tau [8] = molecular target: T3, WT tau; experiment: tau and acetylated tubulin in microtubule fraction of WT tau-expressing COS-7 cells; assay type: cell-based, African green monkey; details: 10 μM, 24 hours
Method: The homogenates were then centrifuged at 3000×g for 5 min at 25° C., and thea supernatant was obtained as a total fraction. The total fraction was further centrifuged at 100000×g for 20 min at 20° C., and a pellet (a microtubule fraction) was obtained. In this manner, the microtubule fraction was taken from the COS-7 cells expressing WT tau, and acetylated tubulin serving as an index of tau and microtubule stabilization was detected.

T1 sequence (P10636 1-441 isoform P10636-8): as the sequence (P10636 1-441 isoform P10636-8 P301L) above, with L301P counted along it

In the case of CC(C)NCC(O)c1ccc(O)c(O)c1 (racemic) [d/l-isoprenaline, mixture of (S)-(+)-isoprenaline and (R)-(−)-isoprenaline], the “thioflavine T activity” value (tau [1]; compound 1-100 μM, FIG. 10) is reported as “inhibition of thioflavine T activity” and the “amount of tau (granular and filamentous tau aggregates) fractionated into Fr3 and subsequent fractions” value (tau [2]) is reported as “apparently reduced the amount of tau”.

In the case of CNC[C@H](O)c1ccc(O)c(O)c1 [(R)-(−)-epinephrine], the “thioflavine T activity” value (tau [1]; FIG. 1, heparin, 37° C.) is reported as “significantly reduced thioflavine T activity”, the “amount of insoluble tau” value (tau [3]) is reported as “reduced the amount of insoluble tau in a concentration dependent manner” and the “amount of tau in fractions Fr3, 4, 5, and 6” value (tau [2]) is reported as “reduced the amount of tau in fractions Fr3, 4, 5, and 6”.

CC(C)NC[C@@H](O)c1ccc(O)c(O)c1 [d-isoprenaline, (S)-(+)-isoprenaline] was tested, and the “thioflavine T activity” value (tau [1]; compound 1-100 μM, FIG. 10) was “inhibition of thioflavine T activity similar to that of d/l-isoprenaline”, the “amount of insoluble tau in cerebral cortices” value (P301L tau Tg mice; mice aged 20-21 months, 2.168 mg/g fed in mash for three months, FIGS. 13, 14) was “apparently reduced the amount of insoluble tau” and the “amount of insoluble tau in hippocampi” value (P301L tau Tg mice; mice aged 20-21 months, 2.168 mg/g fed in mash for three months, FIGS. 15, 16) was “apparently reduced the amount of insoluble tau”. For the same molecule, the “amount of tau (granular and filamentous tau aggregates) fractionated into Fr3 and subsequent fractions” value (tau [2]) was “apparently reduced the amount of tau” and the “number of tau aggregates having major axes of 20 nm or more” value (tau [4]) was “apparently reduced the number of tau aggregates”.

With NCCc1ccc(O)c(O)c1 [dopamine] the “thioflavine T activity” value (tau [1]; FIG. 1, heparin, 37° C.) was “significantly reduced thioflavine T activity”.

For CC(C)NCC(O)c1ccc(O)c(O)c1 (centres unmarked) [isoprenaline], the “thioflavine T activity” value (tau [1]; FIG. 1, heparin, 37° C.) was “significantly reduced thioflavine T activity”, the “dephosphorylation of tau labeled by tau1 antibody” value (WT tau Tg mice) was “induced dephosphorylation of tau” and the “tau phosphorylation (AT8)” value (human P301L mutant tau [5]) was “reduced tau phosphorylation”. The “tau phosphorylation (AT8 sites)” value (WT tau [6]; FIG. 5C) was “also reduced phosphorylation”, the “tau conformational change detected with MC1 antibody” value (WT tau [6]; TBS-soluble fraction, FIG. 5A, 5B) was “reduced the tau conformational change” and the “amount of SDS-insoluble tau” value (human P301L mutant tau [7]) was “reduced the amounts of SDS-insoluble tau”. For the same molecule, the “amount of tau in the microtubule fraction” value (WT tau [8]; FIG. 6A-C) was “increased the amount of tau in the microtubule fraction”, the “amount of acetylated tubulin” value (WT tau [8]; FIG. 6D-F) was “further increased the amount of acetylated tubulin” and the “amount of sarkosyl-insoluble tau in the brains” value (P301L tau Tg mice; 1.5 mg/g fed mixed in mash for three months, FIG. 7) was “reduced the amount of sarkosyl-insoluble tau”. The “amount of tau in fractions Fr3, 4, 5, and 6” value (tau [2]) was “reduced the amount of tau in fractions Fr3, 4, 5, and 6”.

For [Cl-].[Li+] [lithium chloride], the “amount of SDS-insoluble tau” value (human P301L mutant tau [7]) was “reduced the amounts of SDS-insoluble tau”.

NC[C@H](O)c1ccc(O)c(O)c1 [norepinephrine] was tested, and the “thioflavine T activity” value (tau [1]; FIG. 1, heparin, 37° C.) was “significantly reduced thioflavine T activity”.
